One molecule from patent US20120284809A1, “KNOCK DOWN MODEL OF DICKKOPF HOMOLOGUE 3 (Dkk3) FOR ASSESSING ROLE OF SAID Dkk3 IN SPERMATOGENESIS AND SEX REVERSAL” (National Institute of Immunology, priority 2011, published 2012) can be followed below.

The test system of the experiment is spermatogenesis in Dkk3 knock down model. Kind of experiment: Testosterone replacement in Dkk3 knock down model. The experiment is classed as in vivo, non human vertebrate. To be noted: 5 mg intramuscularly. The method, then: Serum testosterone concentrations from the Dkk3 knock down model and wild-type can be assessed at 10 weeks of age. Blood can be obtained through retro orbital bleeding before sacrificing the model. Serum testosterone can be assayed using a modified testosterone immunoassay (RIA) system in triplicate. […] For testosterone replacement, Dkk3 knock down model can be injected intramuscularly with 5 mg of testosterone undecanoate. Controls may be injected with castor oil. Blood can be taken after one month of the injection and serum testosterone levels may be measured.

For `CCCCCCCCCCC(=O)O[C@H]1CC[C@H]2[C@@H]3CCC4=CC(=O)CC[C@]4(C)[C@H]3CC[C@]12C` [testosterone undecanoate], under “not up to wild type control levels”, the “Sperm counts vs Dkk3 knock down model” value is reported as “marginal increase”. Besides, the “degree of spermatogenesis tubule disruption (histology) vs castor oil treated controls” value (one month) is “did not showed any improvement”.
